Measured values reported in patent publication US11028315B2, “Zwitterionic surfactants suitable for enhanced oil recovery” (RHODIA OPERATIONS, priority 2016, dated 2021).
Several values for one entry are separate records, joined by “and”; a condition that tells them apart may be missing. Identical values can stand only once.

Key:
Assay type in all cases: physicochemical
[1] = Solubility of surfactant blends (absorbance)
Method: (§1) 2.1 In the following examples, the performances of surfactants formulations containing the betaine of example 1.3.1 in a brine solution at 50 g/L NaCl were compared.
(§2) The total surfactant concentration was set at 8 g/L and the formulation variable was the wt. % of the more hydrophilic zwitterionic surfactant (considered as co-surfactant) in the surfactant blend.
(§3) The wt. % of the more hydrophilic zwitterionic leading to a Will phase behavior (optimal wt %. of co-surfactant), was determined in presence of crude oil at 40° C. and reported in Table 1. The solubility of surfactant blends was also analyzed.
2.2. In terms of interfacial tension, all the blends studied led to ultra-low values (<10^−2 mN/m). On the other hand, only the hydrophilic amido betaine derived from a branched C12 acid (ADBB12) allows obtaining a homogeneous but opalescent water solution (absorbance of 0.46) at the optimal formulation (71 wt. %).

[2] = Interfacial tension with crude oil by spinning drop methods; conditions: mixture of ADBB12 and the betaine from C23 ketones derived diamine at the optimal wt. %
Method: All the linear alkyl betaines, solutions separate in two phases or forms really turbid solutions (0.86 absorbance). Interfacial tension with crude oil of the mixture ADBB12 and the betaine from C23 ketones derived diamine at the optimal wt. % was evaluated by spinning drop methods. The ultra-low interfacial tension was confirmed (=10^−3 mN/m).

[3] = Interfacial tension calculated from solubility ratios at the equilibrium phase behavior
Method: as §3

[4] = Phase behavior: optimal wt. % of co-surfactant leading to Will phase behavior in presence of crude oil
Method: as §1, §2, §3

CCCCCCC(CCCC)C(=O)NCCC[N+](C)(C)CC(=O)[O-] (stereo not shown) [ADBB12]
Absorbance ([1]; blend with betaine of example 1.3.1 at optimal wt. % co-surfactant, brine 50 g/L NaCl, total surfactant 8 g/L): 0.46 and 0.45 | Absorbance ([1]; blend with sulfobetaine from C23 ketone derived diamine at optimal wt. % co-surfactant): 0.84 | Interfacial tension with crude oil [2]: 10^−3 mN/m | γw (interfacial tension) ([3]; blend with betaine of example 1.3.1 at optimal wt. %, brine 50 g/L NaCl, 8 g/L, crude oil, 40° C.): 3,4 mN/m · 10^3 | γw (interfacial tension) ([3]; blend with sulfobetaine from C23 ketone derived diamine at optimal wt. %): 3.3 mN/m · 10^3 | Optimal % co-surfactant ([4]; blend with betaine of example 1.3.1, brine 50 g/L NaCl, total surfactant 8 g/L, crude oil, 40° C., wt. % of co-surfactant in the blend): 71% | Optimal % co-surfactant ([4]; blend with sulfobetaine from C23 ketone derived diamine, same conditions as the betaines (50 g/L NaCl, 8 g/L, crude oil, 40° C.)): 64%
